One series deals with L6. Nature of the series: Cytotoxicity against rat L6 cells. In kind it is cell-based.
The test system of the next series is Trypanosoma brucei. Nature of the series: Antitrypanosomal activity against Trypanosoma brucei. In kind it is functional, organism-based.
Series [1] deals with T1, Acetylcholinesterase (Homo sapiens, UniProt P22303). Nature of the series: Inhibition of human recombinant AChE using acetylthiocholine iodide as substrate after 20 mins by Ellmans method relative to dimebon. A general note: In Ellman's method for cholinesterases, released thiocholine reacts with DTNB.
T1 sequence (P22303 whole entry): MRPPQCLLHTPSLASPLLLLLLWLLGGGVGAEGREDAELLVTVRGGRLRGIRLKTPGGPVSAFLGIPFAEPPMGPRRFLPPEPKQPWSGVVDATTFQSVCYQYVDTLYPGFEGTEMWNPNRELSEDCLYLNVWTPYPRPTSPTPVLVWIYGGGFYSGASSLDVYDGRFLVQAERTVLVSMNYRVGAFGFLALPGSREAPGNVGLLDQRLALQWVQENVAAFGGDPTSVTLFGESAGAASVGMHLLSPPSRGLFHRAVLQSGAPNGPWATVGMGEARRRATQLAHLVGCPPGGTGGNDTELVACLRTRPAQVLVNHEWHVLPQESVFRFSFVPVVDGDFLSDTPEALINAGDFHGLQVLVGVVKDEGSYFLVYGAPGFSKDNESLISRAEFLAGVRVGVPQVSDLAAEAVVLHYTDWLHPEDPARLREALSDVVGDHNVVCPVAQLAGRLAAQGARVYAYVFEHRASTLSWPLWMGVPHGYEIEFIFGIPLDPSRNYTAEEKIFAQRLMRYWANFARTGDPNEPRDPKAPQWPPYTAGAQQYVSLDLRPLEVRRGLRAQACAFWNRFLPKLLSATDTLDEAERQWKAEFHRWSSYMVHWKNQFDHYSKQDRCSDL
Series [2] concerns the target Glutamate NMDA receptor; GRIN1/GRIN2A (Homo sapiens, UniProt Q05586+Q12879). Briefly: Inhibition of NMDA receptor (unknown origin) at 100 mV. Type of series: protein-complex assay.
The target of series [3] is T1, Acetylcholinesterase. Nature of the series: Inhibition of human recombinant AChE using acetylthiocholine iodide as substrate after 20 mins by Ellmans method.
The target of series [4] is T2, Amyloid-beta precursor protein (Homo sapiens, UniProt P05067). Briefly: Inhibition of self-mediated amyloid beta (1 to 42) aggregation (unknown origin) at 10 uM after 24 hrs by thioflavin T fluorometric assay.
T2 sequence (P05067 whole entry): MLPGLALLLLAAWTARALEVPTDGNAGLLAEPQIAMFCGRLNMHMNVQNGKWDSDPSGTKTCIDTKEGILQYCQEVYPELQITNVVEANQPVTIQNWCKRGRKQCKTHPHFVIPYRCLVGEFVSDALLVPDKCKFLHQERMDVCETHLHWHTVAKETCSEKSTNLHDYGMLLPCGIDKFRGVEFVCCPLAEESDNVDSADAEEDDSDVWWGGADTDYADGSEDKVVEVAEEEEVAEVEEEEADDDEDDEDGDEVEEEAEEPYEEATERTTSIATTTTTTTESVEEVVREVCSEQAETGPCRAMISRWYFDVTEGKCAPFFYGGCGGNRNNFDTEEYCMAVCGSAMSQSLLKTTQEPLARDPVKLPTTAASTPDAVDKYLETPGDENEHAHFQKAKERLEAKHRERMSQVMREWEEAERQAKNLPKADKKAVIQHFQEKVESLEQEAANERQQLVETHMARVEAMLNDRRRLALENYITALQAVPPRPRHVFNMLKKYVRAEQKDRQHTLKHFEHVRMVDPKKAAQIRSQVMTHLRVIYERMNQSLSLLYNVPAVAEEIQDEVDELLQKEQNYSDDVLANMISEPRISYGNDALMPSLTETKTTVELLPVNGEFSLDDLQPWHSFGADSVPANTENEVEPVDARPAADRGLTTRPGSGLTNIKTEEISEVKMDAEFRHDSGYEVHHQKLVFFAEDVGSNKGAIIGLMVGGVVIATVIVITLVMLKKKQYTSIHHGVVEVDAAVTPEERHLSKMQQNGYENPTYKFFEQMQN
A short description of series [5]: Inhibition of parasite-specific trypanothione reductase.
Series [6] can be described thus: Inhibition of Trypanosoma brucei GAPDH.
In series [7] the target is T2, Amyloid-beta precursor protein. Briefly: Inhibition of self-mediated amyloid beta (1 to 42) aggregation (unknown origin) after 24 hrs by thioflavin T fluorometric assay.
In series [8] the test system is Trypanosoma brucei rhodesiense. Briefly: Antitrypanosomal activity against bloodstream forms of Trypanosoma brucei rhodesiense. Type of series: functional. The note with it: read-out: ED50 (the source's name).
Series [9] in a line: Selectivity index, ratio of ED50 for mammalian cells to ED50 for Trypanosoma brucei rhodesiense. In kind it is toxicity. The note with it: read-out: Ratio ED50.

Calls of active or inactive are those of the source. No cut-off for these calls is given here.

In general, IC50 refers to the concentration that inhibits the measured activity by half. By inhibition is commonly meant the percentage by which the read-out fell short of the control. Broadly, the Ki is the dissociation constant of the complex between target and ligand, obtained from inhibition or displacement. Lower therefore signals tighter binding.

Glutamate NMDA receptor; GRIN1/GRIN2A, sequence (Q12879 whole entry, other chains not shown): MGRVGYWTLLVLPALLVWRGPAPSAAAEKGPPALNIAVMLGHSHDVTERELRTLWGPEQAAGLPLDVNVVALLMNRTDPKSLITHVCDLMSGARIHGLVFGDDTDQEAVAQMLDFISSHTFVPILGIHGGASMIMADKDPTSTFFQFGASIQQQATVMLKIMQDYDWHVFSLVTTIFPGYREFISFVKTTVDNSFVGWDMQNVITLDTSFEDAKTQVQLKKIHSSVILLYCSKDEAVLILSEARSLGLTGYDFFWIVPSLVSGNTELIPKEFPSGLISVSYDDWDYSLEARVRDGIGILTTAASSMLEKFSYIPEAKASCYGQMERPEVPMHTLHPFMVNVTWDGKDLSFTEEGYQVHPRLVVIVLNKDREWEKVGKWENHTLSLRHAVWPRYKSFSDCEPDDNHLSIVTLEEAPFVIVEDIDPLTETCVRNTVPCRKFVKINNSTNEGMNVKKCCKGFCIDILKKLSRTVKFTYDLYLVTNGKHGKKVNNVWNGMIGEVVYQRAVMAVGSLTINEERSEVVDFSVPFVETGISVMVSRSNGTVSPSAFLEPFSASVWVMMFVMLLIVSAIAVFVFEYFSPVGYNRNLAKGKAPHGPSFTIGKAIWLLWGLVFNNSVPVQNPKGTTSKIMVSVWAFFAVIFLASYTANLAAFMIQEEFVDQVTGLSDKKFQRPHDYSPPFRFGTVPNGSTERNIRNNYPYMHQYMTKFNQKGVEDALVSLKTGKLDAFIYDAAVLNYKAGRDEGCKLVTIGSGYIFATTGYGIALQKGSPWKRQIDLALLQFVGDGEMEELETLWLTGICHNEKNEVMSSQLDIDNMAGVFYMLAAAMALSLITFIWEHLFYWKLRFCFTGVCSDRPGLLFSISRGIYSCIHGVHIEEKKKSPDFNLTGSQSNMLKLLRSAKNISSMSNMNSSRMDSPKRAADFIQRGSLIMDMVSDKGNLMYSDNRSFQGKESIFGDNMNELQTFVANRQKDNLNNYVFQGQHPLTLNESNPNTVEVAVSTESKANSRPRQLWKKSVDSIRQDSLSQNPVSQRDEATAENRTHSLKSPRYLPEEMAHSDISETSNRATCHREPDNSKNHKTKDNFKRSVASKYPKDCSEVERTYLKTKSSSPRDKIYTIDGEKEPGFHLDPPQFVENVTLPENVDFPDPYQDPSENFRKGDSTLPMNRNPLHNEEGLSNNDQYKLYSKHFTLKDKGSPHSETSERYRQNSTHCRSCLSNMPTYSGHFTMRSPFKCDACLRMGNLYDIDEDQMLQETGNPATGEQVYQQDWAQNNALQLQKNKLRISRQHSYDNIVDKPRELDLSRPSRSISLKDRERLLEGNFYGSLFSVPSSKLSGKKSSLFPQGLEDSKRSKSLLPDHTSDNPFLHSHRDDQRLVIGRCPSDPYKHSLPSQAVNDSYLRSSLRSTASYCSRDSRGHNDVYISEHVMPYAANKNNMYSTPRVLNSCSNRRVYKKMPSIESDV

On to `CN(C)CCCOc1ccc2oc(=O)c(-c3ccc(OC4=CC(=O)c5cc6ccccc6cc5C4=O)cc3)cc2c1`, for which the Activity in the series on L6 came to 7.95 µM. The compound further displayed an EC50 in the series with Trypanosoma brucei of 26 nM.

Regarding `Cc1ccc2[nH]c3c(c2c1)CN(CCCCCCN1CCc2[nH]c4ccc(C)cc4c2C1)CC3`, the fold change (FC) at Acetylcholinesterase [1] came to 128. Moreover, the IC50 in [2] was found to be 11 µM; on Acetylcholinesterase [3], 190 nM. Further, the inhibition in [4] is 35.6%.

On to `CCN(CCCCCCNC1=CC(=O)C(NCCCCCCN(CC)Cc2ccccc2OC)=CC1=O)Cc1ccccc1OC` [MEMOQUIN], for which, on Acetylcholinesterase [3], the IC50 came out at 15400 nM.

Take `CN(C)CCOc1cc2ccc(OC3=CC(=O)c4cc5ccccc5cc4C3=O)cc2oc1=O`: the inhibitory constant (Ki) in series [5] is 2700 nM. This compound displayed a half-maximal inhibitory concentration (IC50) in [6] of 5.4 µM.

Consider `Cc1ccc2[nH]c3c(c2c1)CN(CCCCCCCN1CCc2[nH]c4ccc(C)cc4c2C1)CC3`, for which the fold change (FC) at Acetylcholinesterase [1] is 128. Further, the half-maximal inhibitory concentration (IC50) was 12.6 µM in series [2] and 690 nM at Acetylcholinesterase [3]. Further, in series [4], the inhibition came out at 35.2%.

For `O=C(Cc1ccccc1Nc1c(Cl)cccc1Cl)NCCCNCCCNC1=CC(=O)C(NCCCNCCCNC(=O)Cc2ccccc2Nc2c(Cl)cccc2Cl)=CC1=O`, the IC50 on Acetylcholinesterase [3] was found to be 600 nM; in series [7], 3.11 µM.

On to `O=C1C=C(Oc2ccccc2)C(=O)c2ccccc21`, for which the EC50 in [8] amounted to 80 nM. In addition, the selectivity ratio in [9] came to 74.

In series [2], `Cc1ccc2c(c1)c1c(n2CCc2ccc(C)nc2)CCN(C)C1` [LATREPIRDINE] came in with an IC50 of 13.9 µM. Further, the inhibition result in [4] was “inactive”.
